# From ChEMBL document CHEMBL1151220, “Further bioactive piperidine alkaloids from the flowers and green fruits of Cassia spectabilis” (2004)
# Calls of active or inactive are those of the source. The rule behind the calls is not given here.
# Legend:
# Type in all cases: functional
# Saccharomyces cerevisiae [1] = assay: DNA damaging activity against RS 321N Saccharomyces cerevisiae
# Saccharomyces cerevisiae [2] = assay: DNA damaging activity against RS 188N (RAD+) Saccharomyces cerevisiae
# Saccharomyces cerevisiae [3] = assay: DNA damaging activity against DNA RS 322YK ([…]) Saccharomyces cerevisiae
SMILES,IC12 (Saccharomyces cerevisiae [1]),Activity (Saccharomyces cerevisiae [2]),Activity (Saccharomyces cerevisiae [3]),Activity (Saccharomyces cerevisiae [1])
CC(=O)CCCCCCCCCCCC[C@H]1CC[C@@H](OC(C)=O)[C@@H](C)N1,32 µg/mL,–,–,–
CC(=O)CCCCCCCCCCCC[C@H]1CC[C@@H](O)[C@@H](CO)N1,–,inactive,inactive,inactive
CC(=O)CCCCCCCCCCCC[C@@H]1CC[C@@H](O)[C@@H](C)N1,–,inactive,inactive,inactive
CC(=O)CCCCCCCCCCCC[C@H]1CC[C@@H](O)[C@@H](C)N1,17 µg/mL,–,–,–
COC1=C(N)C(=O)c2nc(-c3nc(C(=O)O)c(C)c(-c4ccc(OC)c(OC)c4O)c3N)ccc2C1=O [STREPTONIGRIN],4 µg/mL,–,–,–
